Here are results for two compounds from EP3050886A1, “Fluorescent dyes and dye precursors” (Bürkert Werke GmbH, priority 2015, dated 2016).

Entries after “also recorded” stand apart in the source; their conditions may differ.

In data set [1] the test system is Enterobacter cloacae. Kind of data set: Bacteria staining test, fluorescence microscopy. The class given is cell-based. Particulars: for fluorescence of stained viable bacteria compared with 5-CFDA: viable E. cloacae; for staining of viable versus dead bacteria: viable or dead E. cloacae, Fig. 3a. As to the method: (§1) Escherichia coli (E. coli) (ATCC 8739) and Bacillus subtilis (B. subtilis) (ATCC 6633) strains were routinely grown in Luria Bertani (LB) broth or on LB agar plates for 18h at 37 °C. Waterborne environmental bacteria such as Enterobacter cloacae (E. cloacae), Chryseobacterium indologenes (C. indologenes), Pseudomonas aeruginosa (P. aeruginosa), and E. coli (EC18) were purchased from Eurofins™. Environmental bacteria were grown in LB broth or on casein-peptone soymeal-peptone agar plates for 18h at 37 °C.
(§2) For the staining tests, E. coli (ATCC 8739 or EC18), E. cloacae, C. indologenes, P. aeruginosa and B. subtilis were cultivated in Luria-Bertani (LB) broth until exponential phase at 37°C with shaking at 300 rpm revolutions per minutes (rpm). Bacteria were harvested and washed in sterile phosphate buffer saline solution (PBS) at pH […] by centrifugation at 10000 rpm for 3 min at room temperature (21 ± 2 °C). Then the bacteria were resuspended in PBS at a concentration of 1·10^9 bacteria/ml. Bacteria concentration was calculated according to the turbidity measure at 660 nm (A660nm=1 correspond to bacterial suspension at ∼ 5·10^8 bacteria/ ml).
(§3) Dead bacterial suspensions at 1·10^9 bacteria/ml (negative controls) of these five species of bacteria were prepared individually by addition of 20 µl of bleach containing 2.6 % active chlorine. Bacteria were treated with bleach solution for 15 min. Dead bacteria were washed twice in sterile PBS by centrifugation at 10000 rpm for 3 min at room temperature. The culturability of the negative controls was assessed by plating 100 µl of bacterial suspension onto LB agar or Caso agar and incubating the plates at 37 °C for 72 h.
(§4) Bacteria (100 µl suspension at 1·10^9 bacteria/ml) were stained with 10 µM or 15 µM of pro-fluorophore (5-CFDA, 5-PFDAE, 5-PFDAT, 5-PFDA, 5-COGDA, 5-POGDA or 5-POGAM) in 200 µl of PBS solution containing 0.6 % of glutaraldehyde. Bacteria were incubated at 37 °C for 10 - 60 min with pro-fluorophore in darkness. After bacterial staining, they were washed and resuspended in 100 µl of PBS as described above.
(§5) Staining of the bacterial suspension was observed under a fluorescent microscope. These bacteria were imaged with a Leica DM5500 microscope equipped with FITC filter. […] Images were collected with a 100x objective. Fluorescence intensity of stained bacterial suspension was also measured with FluoroLog®-3 (Horiba Jobin Yvon) spectrofluorometer equipped with sample stirring. Samples were placed in fluorescence grade quartz cuvette having a volume of 1 ml. The excitation wavelength used was 488 nm and emission wavelength used was 517 nm. The same experiment was repeated three times (n = 3).

Data set [2] relates to Bacillus subtilis (B. subtilis) (ATCC 6633). Nature of the data set: Bacteria staining test, fluorescence microscopy. Particulars: viable or dead B. subtilis, Fig. 3d. In kind it is cell-based. As to the method: as §1, §2, §3, §4, §5
Data set [3] relates to Pseudomonas aeruginosa. Nature of the data set: Bacteria staining test, fluorescence microscopy. The class given is cell-based. The conditions noted are these: for fluorescence of stained viable bacteria compared with 5-CFDA: viable P. aeruginosa; for staining of viable versus dead bacteria: viable or dead P. aeruginosa, Fig. 3c. As to the method:
as §1, §2, §3, §4, §5

Data set [4] deals with Chryseobacterium indologenes. Nature of the data set: Bacteria staining test, fluorescence microscopy. The class given is cell-based. Particulars: for fluorescence of stained viable bacteria compared with 5-CFDA: viable C. indologenes; for staining of viable versus dead bacteria: viable or dead C. indologenes, Fig. 3b. The procedure: as §1, §2, §3, §4, §5
Data set [5] can be described thus: Short-term chemical stability (spontaneous fluorescence generation) in aqueous buffer. In kind it is physicochemical. The conditions noted are these: for chemical stability in aqueous solution (in words): PBS solution containing 0.6 % glutaraldehyde, 37°C; for relative speed of spontaneous fluorescence generation (spontaneous hydrolysis): relative to 5-CFDA, 15 µM, PBS containing 0.6 % glutaraldehyde, pH ~7, 37°C, 0-60 min. As to the method:
The short-term chemical stability of the pro-fluorophores of the present invention in an aqueous buffer was evaluated by fluorometric measurement analysis after several minutes of storage at 37°C.
Each pro-fluorophore (5-CFDA, 5-PFDAE, 5-PFDAT, 5-PFDA, 5-COGDA, 5-POGDA, 5-POGAM) was dissolved in dimethylsulfoxide (DMSO) in order to prepare a 10 mM stock solution. Short-term stability studies (0-60 min) were performed in the absence of light at 37°C. The pro-fluorophore stock solutions were diluted into a PBS solution containing 0.6 % of glutaraldehyde (pH ∼7). The pro-fuorophore final concentration was 15 µM. Samples were stored in a fluorescence grade quartz cuvette having a volume of 1 ml. Fluorescence emission spectra between 500 and 540 nm were recorded every 10 minutes. The excitation wavelength used was 488 nm. Fluorometric measurement were made with a FluoroLog®-3. (Horiba Jobin Yvon) spectrofluorometer equipped with sample stirring. The same experiment was repeated three times (n = 3).
Thus, the slope of the straight line corresponds to the speed of spontaneous fluorescence generation.

Data set [6] concerns Klebsiella oxytoca. Kind of data set: Bacteria staining test, fluorescence microscopy (data not shown). In kind it is cell-based. The procedure: as §4, §5
(§6) No fluorescence signal was detected by microscopy analysis with the dead bacteria.

For data set [7], the system named is Citobacter freudii. Described as above. In kind it is cell-based. The procedure: as §4, §5, §6
The subject of data set [8] is Comamonas testosteroni/alcaligenes. The description is as above. In kind it is cell-based. The procedure: as §4, §5, §6
Data set [9] relates to E. coli (ATCC 8739). Nature of the data set: Labeling of viable E. coli, fluorescence intensity by spectrofluorometer. In kind it is cell-based, Escherichia coli. The conditions noted are these: for E. coli staining at 40 µM compared with 5-CFDA or 5-PFDA / concentration range resulting in a saturation process / concentration up to which an increase of viable E. coli fluorescence intensity is obtained: data not shown; for viable E. coli fluorescence intensity relative to 5-CFDA staining: 10 - 15 µM, 30 min at 37 °C, excitation 488 nm, emission 517 nm, Figure 5. As to the method: as §2, §3
[…] Bacteria were incubated at 37 °C for 10 - 60 min with pro-fluorophore in darkness. After bacterial staining, they were washed and resuspended in 100 µl of PBS as described above.
as §5
Viable or dead E. coli (ATCC 8739) were incubated with different pro-fluorophores (10 - 15 µM) for 30 min at 37 °C. After washes, fluorescence of the E. coli suspension was measured with a FluoroLog®-3 spectrofluorometer (excitation wavelength: 488 nm, emission wavelength: 517 nm). Relative rates of viable E. coli fluorescence intensity were calculated by normalizing the difference of viable E. coli fluorescence intensity and dead E. coli fluorescence intensity with 5-CFDA staining.
Viable E. coli (ATCC 8739) were incubated with different pro-fluorophores (15 µM) at 37 °C for 10 - 60 min. After washes, E. coli fluorescence suspension was measured with FluoroLog®-3 spectrofluorometer (excitation wavelength: 488 nm, emission wavelength: 517 nm).

Turning to `CCCNC(=O)c1ccc2c(c1)C(=O)OC21c2cc(F)c(OCOC(C)=O)cc2Oc2cc(OCOC(C)=O)c(F)cc21` [Example 5-POGAM, 2',7'-difluoro-3-oxo-5-(propylcarbamoyl)-3H-spiroisobenzofuran-1,9'-xanthene-3',6'-diyl diacetoxymethyl ether], the “fluorescence of stained viable bacteria compared with 5-CFDA” value in data set [1], in [3] and in [4] was “brighter fluorescence than 5-CFDA stained bacteria” in each case. The “staining of viable versus dead bacteria” value in data set [1] is listed as “stained only viable”; in [2] it was “stained only viable”; in data set [3], “stained only viable”; in data set [4], “stained only viable”; in data set [6], “The same results were obtained”; in [7] it was “The same results were obtained”. The “staining of viable versus dead bacteria” value in data set [8] is on record as “The same results were obtained”. Further, the “chemical stability in aqueous solution (in words)” value in [5] is on record as “greater chemical stability in aqueous solution; also recorded: much more stable in aqueous solution”. In addition, the “relative speed of spontaneous fluorescence generation (spontaneous hydrolysis)” value in data set [5] is given as “almost four times slower”. In [9], the “E. coli staining at 40 µM compared with 5-CFDA or 5-PFDA” value is reported as “stronger E. coli staining than 5-CFDA or 5-PFDA”. The “viable E. coli fluorescence intensity relative to 5-CFDA staining” value in [9] was “between two and three times higher; also recorded: three times brighter”. Further, in data set [9], the “concentration range resulting in a saturation process” value was 20 to 40 µM. In data set [9], the “concentration up to which an increase of viable E. coli fluorescence intensity is obtained” value is on record as “about 15 µM”.

Regarding `CCCNC(=O)c1ccc2c(c1)C(=O)OC21c2cc(F)c(OC(C)=O)cc2Oc2cc(OC(C)=O)c(F)cc21` [Example 5-POGDA, 2',7'-difluoro-3-oxo-5-(propylcarbamoyl)-3H-spiro[isobenzofuran-1,9'-xanthene]-3',6'-diyl diacetate], the “fluorescence of stained viable bacteria compared with 5-CFDA” value in [1], in data set [3] and in [4] was “brighter fluorescence than 5-CFDA stained bacteria” each time. The “staining of viable versus dead bacteria” value in data set [1] was “stained only viable”; in data set [2], “stained only viable”; in [3], “stained only viable”; in data set [4], “stained only viable”; in [6], “The same results were obtained”; in data set [7], “The same results were obtained”. Also, in data set [8], the “staining of viable versus dead bacteria” value is listed as “The same results were obtained”. For the same compound, the “chemical stability in aqueous solution (in words)” value in data set [5] is on record as “less stable”. Also, the “relative speed of spontaneous fluorescence generation (spontaneous hydrolysis)” value in [5] is “almost six times higher”. Besides, in [9], the “E. coli staining at 40 µM compared with 5-CFDA or 5-PFDA” value is given as “stronger E. coli staining than 5-CFDA or 5-PFDA”. Besides, the “viable E. coli fluorescence intensity relative to 5-CFDA staining” value in [9] was “approximately 6”. Further, in [9], the “concentration range resulting in a saturation process” value was 20 to 40 µM. For the same compound, in [9], the “concentration up to which an increase of viable E. coli fluorescence intensity is obtained” value was “about 15 µM”.
